Experimental data published in patent US20140230091A1, “MODIFIED PLANTS WITH INCREASED OIL CONTENT” (BROOKHAVEN SCIENCE ASSOCIATES, LLC, priority 2011, published 2014).

How the values were obtained:
[1] = tested on: genes encoding plastidic ACCase subunits; test: qPCR analysis of genes encoding plastidic ACCase subunits; format: cell-based, Brassica napus; conditions: 10 mM Tween-80, three hour treatment; mean of three repeats ± SE; 0 mM = 1
Protocol: RNA was isolated from cultured cells using Trizol Reagent (Invitrogen, Carlsbad, Calif., USA) and was treated with DNase. cDNA was synthesized from 1 μg of total RNA using the Bio-Rad (Hercules, Calif., USA) iScript cDNA synthesis kit. qPCR was performed with 1:50 of the cDNA product and SSO Fast EvaGreen supermix (Bio-Rad). Reference genes were ACT7 and UBC21 using primers as described previously (Chen et al. 2010 Anal Biochem, 405, 138-140). Primers for experimental genes were as follows: BC, biotin carboxylase (GenBank:A Y034410.1), F-[…] (SEQ ID No. 28) and R-[…] (SEQ ID No. 29); BCCP, biotin carboxyl carrier protein (GenBank: X90730.1), F-[…] (SEQ ID No. 30), R-[…] (SEQ ID No. 31); CT-α, carboxytransferase-α (GenBank GQ341624.1), F-[…] (SEQ ID No. 32), R-[…] (SEQ ID No. 33); CT-β, carboxytransferase-β (GenBank: Z50868.1), F-[…] (SEQ ID No. 34), R-[…] (SEQ ID No. 35). Relative expression level was calculated using REST software (Qiagen, Valencia, Calif., USA).
Gene expression analysis and enzyme assays were performed to better understand the apparent reduction in ACCase activity during Tween-80 feeding. Quantitative real-time PCR was used to measure the expression of genes encoding plastidic ACCase subunits. The specific genes selected for analysis were those originally identified as being embryo expressed in Brassica napus plants (Elborough et al. 1996, Biochemical Journal, 315, 103-112). […] Desalted extracts gave the same result. […] If dephosphorylation is involved in feedback, then treatment with phosphatase would be expected to reduce ACCase activity from inhibited cells to a lesser extent than from the control. If PII interaction is involved, then it is possible that incubation in the presence of 2-oxoglutarate would […] ACCase from a Tween-fed extract more than the control.

B. napus cells = test: Quantification of free fatty acid, acyl-ACP and acyl-CoA pools in cells; format: cell-based, Brassica napus; conditions: after three hours of Tween-80 feeding
Protocol: Free fatty acids were extracted from tissue by quenching ˜300 mg of frozen cells in 2 mL boiling isopropanol for 5 min. Once cooled, 2 mL of 0.9% NaCl was added and lipids were extracted twice with 4 mL of hexane. Neutral lipids were separated by TLC and free fatty acids were scraped, made into FAMEs, and analyzed by GC-FID or GC-MS as described above. Acyl-CoAs were extracted from ˜15 mg FW of cells and quantified as previously described (Larson and Graham 2001, Plant J, 25, 115-125). Acyl-ACPs were extracted and quantified as previously described (Kopka, Ohlrogge and Jaworski 1995, Anal Biochem, 224, 51-60) with the following modifications: 1) Internal standards used were 11:0-CoA (Sigma) and 17:0—ACP made from Spinach ACP as previously described (Broadwater and Fox 1999, Protein Expr Purif, 15, 314-326). 2) Fully dissolving TCA precipitated proteins required three extractions with MOPS buffer rather than just one.
1986 Plant Physiol, 82, 771-779). Free fatty acids can be activated by esterification to CoA or ACP before being deposited in cellular lipids. Steady state pools acyl-ACP and acyl-CoA as well as free fatty acids (FFA) were measured in cells fed Tween-80. After three hours of feeding, 18:1 FFA appeared where there was none detected in untreated cells (FIG. 9a). […] In a separate experiment designed to distinguish the incorporation of fatty acids from Tween from secondary effects of feedback inhibition, FFA and acylACPs were analyzed in cells fed ^13C-oleoyl-Tween. […] First, the in vivo concentrations of these intermediates were calculated based on the range of values in FIG. 9 and the water content of the cells. […] However, considering that acyl-ACPs are restricted to the plastid, the volume of which in developing embryos was determined to be 10% of the cell (Mansfield and Briarty 1992, Can J Bot, 70, 151-164), the estimate increased to 5-10 μM. […] Thioesterase activity was measured using the same conditions as the ACCase assay. […]

## Tween-80
[1]
  Relative gene expression BC: 0.91 ± 0.17
  Relative gene expression BCCP: 1.32 ± 0.58
  Relative gene expression CT-α: 1.02 ± 0.33
  Relative gene expression CT-β: 1.18 ± 0.29
B. napus cells
  change in amount of 18:1-ACP and 18:1-CoA: double in amount
